Measurements from US9695155B2, “Herbicidal substituted pyrimidinyloxy benzene compounds” (E. I. DU PONT DE NEMOURS AND COMPANY, priority 2013, dated 2017).

Key:
Test in all cases: Test C preemergence
blackgrass = type: in vivo, Alopecurus myosuroides; settings: for Blackgrass plant response rating: preemergence; for Plant response rating, Blackgrass: Preemergence, 31 g ai/ha, scale 0 to 100, 0 no effect, 100 complete control
Summary of the method: (§1)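 Plants were kept under greenhouse conditions for 13–15 days following spray. Pre-emergent application went to soil (loam–sand), post-emergent to foliage at 1–4 leaves. Evaluation: visual, percent control against untreated checks.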

Italian ryegrass = type: in vivo, Lolium multiflorum; settings: preemergence
Summary of the method: as §1

wheat, winter = type: in vivo, Triticum aestivum; settings: preemergence
Summary of the method: as §1

large (Lg) crabgrass = type: in vivo, Digitaria sanguinalis; settings: for Crabgrass, Large plant response rating: preemergence; for Plant response rating, Crabgrass, Large: Preemergence, 31 g ai/ha, scale 0 to 100, 0 no effect, 100 complete control
Summary of the method: as §1

giant foxtail = type: in vivo, Setaria faberii; settings: for Foxtail, Giant plant response rating: preemergence; for Plant response rating, Foxtail, Giant: Preemergence, 31 g ai/ha, scale 0 to 100, 0 no effect, 100 complete control
Summary of the method: as §1

johnsongrass = type: in vivo, Sorghum halepense; settings: preemergence
Summary of the method: as §1

pigweed = type: in vivo, Amaranthus retroflexus; settings: preemergence
Summary of the method: as §1

ragweed = type: in vivo, Ambrosia elatior; settings: preemergence
Summary of the method: as §1

soybean = type: in vivo, Glycine max; settings: preemergence
Summary of the method: as §1

barnyardgrass = type: in vivo, Echinochloa crus-galli; settings: for Barnyardgrass plant response rating: preemergence; for Plant response rating, Barnyardgrass: Preemergence, 31 g ai/ha, scale 0 to 100, 0 no effect, 100 complete control
Summary of the method: as §1

oilseed rape = type: in vivo, Brassica napus; settings: preemergence
Summary of the method: as §1

waterhemp = type: in vivo, Amaranthus rudis; settings: preemergence
Summary of the method: as §1

velvetleaf = type: in vivo, Abutilon theophrasti; settings: preemergence
Summary of the method: as §1

[1] = 16 g ai/ha, scale 0 to 100 (0 no effect, 100 complete control)
[2] = 62 g ai/ha, scale 0 (no effect) to 100 (complete control)
[3] = 125 g ai/ha, scale 0 (no effect) to 100 (complete control)

## Fc1cnc(Oc2cccc(C(F)F)c2-n2cc(C(F)(F)F)cn2)nc1 [Compound 164]
blackgrass; [1]
  Blackgrass plant response rating: 0
blackgrass; [2]
  Blackgrass plant response rating: 90
blackgrass; [3]
  Blackgrass plant response rating: 90
blackgrass
  Plant response rating, Blackgrass: 50
Italian ryegrass; [1]
  Ryegrass, Italian plant response rating: 0
Italian ryegrass; [2]
  Ryegrass, Italian plant response rating: 65
Italian ryegrass; [3]
  Ryegrass, Italian plant response rating: 98
wheat, winter; [1]
  Wheat plant response rating: 0
wheat, winter; [2]
  Wheat plant response rating: 30
wheat, winter; [3]
  Wheat plant response rating: 35
Large (Lg) crabgrass; [1]
  Crabgrass, Large plant response rating: 75
Large (Lg) crabgrass; [2]
  Crabgrass, Large plant response rating: 100
Large (Lg) crabgrass; [3]
  Crabgrass, Large plant response rating: 100
Large (Lg) crabgrass
  Plant response rating, Crabgrass, Large: 85
Giant foxtail; [1]
  Foxtail, Giant plant response rating: 40
Giant foxtail; [2]
  Foxtail, Giant plant response rating: 100
Giant foxtail; [3]
  Foxtail, Giant plant response rating: 100
Giant foxtail
  Plant response rating, Foxtail, Giant: 95
johnsongrass; [1]
  Johnsongrass plant response rating: 5
johnsongrass; [2]
  Johnsongrass plant response rating: 75
johnsongrass; [3]
  Johnsongrass plant response rating: 80
pigweed; [1]
  Pigweed plant response rating: 98
pigweed; [2]
  Pigweed plant response rating: 100
pigweed; [3]
  Pigweed plant response rating: 98
ragweed; [1]
  Ragweed plant response rating: 0
ragweed; [2]
  Ragweed plant response rating: 75
ragweed; [3]
  Ragweed plant response rating: 85
soybean; [1]
  Soybean plant response rating: 0
soybean; [2]
  Soybean plant response rating: 65
soybean; [3]
  Soybean plant response rating: 95
barnyardgrass; [1]
  Barnyardgrass plant response rating: 15
barnyardgrass; [2]
  Barnyardgrass plant response rating: 98
barnyardgrass; [3]
  Barnyardgrass plant response rating: 100
barnyardgrass
  Plant response rating, Barnyardgrass: 70
Oilseed rape; [1]
  Oilseed Rape plant response rating: 70
Oilseed rape; [2]
  Oilseed Rape plant response rating: 100
Oilseed rape; [3]
  Oilseed Rape plant response rating: 100
waterhemp; [1]
  Waterhemp plant response rating: 85
waterhemp; [2]
  Waterhemp plant response rating: 100
waterhemp; [3]
  Waterhemp plant response rating: 100
velvetleaf; [1]
  Velvetleaf plant response rating: 50
velvetleaf; [2]
  Velvetleaf plant response rating: 100
velvetleaf; [3]
  Velvetleaf plant response rating: 100

## FC(F)c1cccc(Oc2ncc(Cl)cn2)c1-n1cc(C(F)(F)F)cn1 [Compound 170]
blackgrass; [1]
  Blackgrass plant response rating: 0
blackgrass; [2]
  Blackgrass plant response rating: 90
blackgrass; [3]
  Blackgrass plant response rating: 90
blackgrass
  Plant response rating, Blackgrass: 80
Italian ryegrass; [1]
  Ryegrass, Italian plant response rating: 5
Italian ryegrass; [2]
  Ryegrass, Italian plant response rating: 75
Italian ryegrass; [3]
  Ryegrass, Italian plant response rating: 90
wheat, winter; [1]
  Wheat plant response rating: 0
wheat, winter; [2]
  Wheat plant response rating: 20
wheat, winter; [3]
  Wheat plant response rating: 60
Large (Lg) crabgrass; [1]
  Crabgrass, Large plant response rating: 25
Large (Lg) crabgrass; [2]
  Crabgrass, Large plant response rating: 100
Large (Lg) crabgrass; [3]
  Crabgrass, Large plant response rating: 100
Large (Lg) crabgrass
  Plant response rating, Crabgrass, Large: 95
Giant foxtail; [1]
  Foxtail, Giant plant response rating: 80
Giant foxtail; [2]
  Foxtail, Giant plant response rating: 98
Giant foxtail; [3]
  Foxtail, Giant plant response rating: 100
Giant foxtail
  Plant response rating, Foxtail, Giant: 85
johnsongrass; [1]
  Johnsongrass plant response rating: 0
johnsongrass; [2]
  Johnsongrass plant response rating: 70
johnsongrass; [3]
  Johnsongrass plant response rating: 85
pigweed; [1]
  Pigweed plant response rating: 100
pigweed; [2]
  Pigweed plant response rating: 100
pigweed; [3]
  Pigweed plant response rating: 100
ragweed; [1]
  Ragweed plant response rating: 85
ragweed; [2]
  Ragweed plant response rating: 55
ragweed; [3]
  Ragweed plant response rating: 65
soybean; [1]
  Soybean plant response rating: 5
soybean; [2]
  Soybean plant response rating: 45
soybean; [3]
  Soybean plant response rating: 55
barnyardgrass; [1]
  Barnyardgrass plant response rating: 10
barnyardgrass; [2]
  Barnyardgrass plant response rating: 100
barnyardgrass; [3]
  Barnyardgrass plant response rating: 100
barnyardgrass
  Plant response rating, Barnyardgrass: 55
Oilseed rape; [1]
  Oilseed Rape plant response rating: 70
Oilseed rape; [2]
  Oilseed Rape plant response rating: 98
Oilseed rape; [3]
  Oilseed Rape plant response rating: 95
waterhemp; [1]
  Waterhemp plant response rating: 100
waterhemp; [2]
  Waterhemp plant response rating: 100
waterhemp; [3]
  Waterhemp plant response rating: 100
velvetleaf; [1]
  Velvetleaf plant response rating: 25
velvetleaf; [2]
  Velvetleaf plant response rating: 80
velvetleaf; [3]
  Velvetleaf plant response rating: 100
